Measured values as given in paper PMC5995905, “Confirmation of high-throughput screening data and novel mechanistic insights into VDR-xenobiotic interactions by orthogonal assays” (Scientific Reports, 2018).
Several values for one entry are separate records, joined by “and”; a condition that tells them apart may be missing. Equal values may be shown once. Entries after “also recorded” stand apart in the source; their conditions may differ. Where a name gives a salt, the structure may show the parent alone. Read-outs that look alike come from different tables or passages of the source. Blank lines part the entries; values can stand above or below the compound they belong to.

Legend:
[1] = target: VDR:SRC-1 (Homo sapiens, UniProt P11473); test: Mammalian 2-hybrid assay, recruitment of coactivator SRC-1 by VDR, Cos7 cells; conditions: agonists; -RXR (empty pSG5); percentage of vitamin D3; conc. in Fig 5: ergocalciferol 60, lithocholic acid 50, calcipotriol 0.05, ethylphenol compound 40, 9 aminoacridine 50, tamoxifen citrate 20 μM
[2] = target: human VDR ligand-binding domain; parameters: method as in PMID 21543282; conditions: agonist mode; Tox21 qHTS data set; * = range of values; cited from earlier work
[3] = target: T1, human VDR (Homo sapiens, UniProt P11473); test: Transient transactivation assay (CYP24-Luc), agonist mode, HEK293T cells; conditions: for Derived Efficacy (fold induction): top asymptote of Hill or Gain-Loss model, maximum response
T1 sequence (P11473 1-427): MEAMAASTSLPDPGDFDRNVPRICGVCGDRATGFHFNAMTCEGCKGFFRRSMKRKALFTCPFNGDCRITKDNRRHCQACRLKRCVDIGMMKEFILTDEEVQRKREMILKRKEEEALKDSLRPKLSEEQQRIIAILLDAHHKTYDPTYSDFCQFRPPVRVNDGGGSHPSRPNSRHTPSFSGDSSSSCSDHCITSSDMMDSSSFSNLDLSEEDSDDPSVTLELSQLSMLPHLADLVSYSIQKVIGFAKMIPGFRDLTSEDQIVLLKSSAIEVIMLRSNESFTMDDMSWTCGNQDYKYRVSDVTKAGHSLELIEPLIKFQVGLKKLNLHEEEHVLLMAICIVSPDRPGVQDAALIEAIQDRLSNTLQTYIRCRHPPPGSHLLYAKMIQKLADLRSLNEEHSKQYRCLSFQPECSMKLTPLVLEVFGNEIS

[4] = target: T1, human VDR
[5] = target: T2, VDR:RXR, VDR:SRC-1 and VDR:NCoR interactions (Homo sapiens, UniProt P11473); test: Mammalian 2-hybrid assay, summary in words of VDR coregulator interactions; assay type: cell-based
T2 sequence (P11473 1-427): T1 sequence (P11473 1-427)

[6] = target: human VDR ligand-binding domain; parameters: method as in PMID 21543282; conditions: read-out: Tox21 IC 50, cited from earlier work
[7] = target: T1, human VDR; test: Transient transactivation assay (CYP24-Luc), antagonist mode with 3 nM 1,25D3, HEK293T cells; assay type: cell-based
[8] = target: T3, VDR:NCoR (Homo sapiens, UniProt P11473); test: Mammalian 2-hybrid assay, recruitment of corepressor NCoR by VDR, Cos7 cells
T3 sequence (P11473 1-427): T1 sequence (P11473 1-427)

[9] = AC50 (μM), experimental AC50 as listed in Fig 4a, agonists
[10] = Derived AC50 (Transient transactivation assay), agonist mode, HEK293T cells, CYP24A1-Luc
[11] = agonists, orthogonal transient transactivation assay, HEK293T cells
[12] = Derived IC 50 (Transient transactivation assay)
[13] = read-out: Derived AC50 (Transient transactivation assay)
[14] = read-out: Derived IC 50 (Transient transactivation assay)
[15] = antagonist mode, Tox21 qHTS data set
[16] = top asymptote of Hill or Gain-Loss model, maximum response
[17] = antagonists, transient transactivation assay in the presence of 3 nM 1,25D3
[18] = inhibition of 3 nM 1,25D3-induced response, HEK293T cells, unit given in Fig 3 legend, read-out: Derived IC 50 (Transient transactivation assay)
[19] = experimental AC50 as listed in Fig 4a, antagonists, read-out: AC50

- % Induction, pMSRC-1NR + EpSG5 [1]: 7.2%
- AC50 [3, 9]: 35.4 µM
- AC50 [3, 10]: 36.8 µM
- Activity [3, 11]: Active
- Derived Efficacy (fold induction) [3]: 89.3748 fold induction
Compound: CCc1cc(Cc2cc(CC)cc(C(C)(C)C)c2O)c(O)c(C(C)(C)C)c1 [2,2′-methylenebis(6-tert-butyl-4-ethylphenol)]
- AC50 [2]: 52600 nM

- AC50 [3, 10]: 13.8 µM
- Activity [3, 11]: Active
- Derived Efficacy (fold induction) [3]: 14.1669 fold induction
Compound: O=S(=O)(O)c1ccc2ccc(S(=O)(=O)O)cc2c1 [2,7 Naphthalene disulfonic acid]
- AC50 [2]: 14500 nM

Compound: Cc1cccc2c1cc1ccc3cccc4ccc2c1c34 [7 methyl benzo (a) pyrene]
- Derived Efficacy (fold induction) [4]: 19.1624 fold induction
- AC50 [2]: 2540 nM
- pattern of VDR:coregulator interaction facilitated by the ligand [5]: Interaction between VDR:RXR only in the presence of co transfected SRC-1
- Activity [3]: Active
- AC50 ([3]; Derived AC50 (Transient transactivation assay)): 10.6 µM

- AC50 [3, 10]: 0.793 µM
- Activity [3, 11]: Active
- Derived Efficacy (fold induction) [3]: 17.3255 fold induction
Compound: Cc1cc(=O)oc2cc(N(C)C)ccc12 [7-(Dimethylamino)-4-methylcoumarin]
- AC50 [2]: 2880 to 21500 nM

Compound: c1csc(-c2ccc(-c3cccs3)s2)c1 [Alpha-Terthiophene]
- Derived Efficacy (fold induction) [4]: 19.9132 fold induction
- AC50 [2]: 15700 nM
- pattern of VDR:coregulator interaction facilitated by the ligand [5]: Interaction between VDR:RXR only in the absence of full length SRC-1
- AC50 [3, 10]: 0.305 µM
- Activity [3, 11]: Active

Compound: COc1cccc2c1cc([N+](=O)[O-])c1c(C(=O)O)cc3c(c12)OCO3 [Aristolochic acid]
- IC50 [6]: 7320 nM
- Activity [7]: Active
- Derived Efficacy (fold inhibition) [7]: 76.1807 fold inhibition
- IC50 [7, 12]: 820 nM and 827 nM
- pattern of change of 1,25D3 induced VDR:coregulator interaction [5]: enhanced the interaction between VDR:SRC-1 only in the absence of RXR
- Fold Change (pMNCoR + EpSG5) [8]: 25.8

Compound: O=S(=O)(O)c1ccccc1 [Benzenesulfonic acid]
- AC50 [2]: 9900 nM
- pattern of VDR:coregulator interaction facilitated by the ligand [5]: did not facilitate VDR:RXR or VDR:SRC-1 interactions under any condition
- Activity [3]: Active
- AC50 [3, 13]: 0.772 µM
- Derived Efficacy (fold induction) [3]: 13.6777 fold induction

- % Induction, pMSRC-1NR + EpSG5 [1]: 142.9%
- Activity [3, 11]: Active
Compound: C=C1/C(=C\C=C2/CCC[C@]3(C)[C@@H]([C@H](C)/C=C/[C@@H](O)C4CC4)CC[C@@H]23)C[C@@H](O)C[C@@H]1O [Calcipotriol, reference compound]
- AC50 [2]: 0.294 nM

Compound: O=C(O)CCCc1ccc(N(CCCl)CCCl)cc1 [Chlorambucil, reference compound]
- IC50 [6]: 0.058 nM
- Activity [7]: Active
- Derived Efficacy (fold inhibition) [7]: 68.5251 fold inhibition
- IC50 [7, 12]: 21 nM
- Fold Change (pMNCoR + EpSG5) [8]: 0.9

Compound: CCC[CH2][Sn]([Cl])([Cl])[CH2]CCC [Dibutyltin dichloride]
- IC50 [6]: 82.3 nM
- Activity [7]: Active
- Derived Efficacy (fold inhibition) [7]: 20.5748 fold inhibition
- IC50 [7, 14]: 540 nM and 542 nM
- pattern of change of 1,25D3 induced VDR:coregulator interaction [5]: consistently attenuate recruitment VDR:RXR and VDR:SRC-1 in both the presence and absence of co-expressed coregulators

Compound: O=C1C(Cl)=C(Cl)C(=O)c2ccccc21 [Dichlone]
- AC50 [7]: 19800 nM
- Activity [7]: moderate to marked synergistic activity; also recorded: Active
- Derived Efficacy (fold inhibition) [7]: 86.9798 fold inhibition
- IC50 [7, 12]: 240 nM and 243 nM
- Fold Change (pMNCoR + EpSG5) [8]: 1.1
- Activity [3]: very weak agonist activity

Compound: O=S(=O)(O)c1ccccc1C=Cc1ccc(-c2ccc(C=Cc3ccccc3S(=O)(=O)O)cc2)cc1.[Na].[Na] [Disodium 4,4′-bis(2-sulfostyryl) biphenyl]
- Derived Efficacy (fold induction) [4]: 9.4578 fold induction
- AC50 [2]: 18000 nM
- pattern of VDR:coregulator interaction facilitated by the ligand [5]: did not facilitate VDR:RXR or VDR:SRC-1 interactions under any condition
- Activity [3]: Active
- AC50 [3, 13]: 0.394 µM

Compound: C=C1CC[C@H](O)C/C1=C/C=C1\CCC[C@]2(C)[C@@H]([C@H](C)/C=C/[C@H](C)C(C)C)CC[C@@H]12 [Ergocalciferol, reference compound]
- AC50 [2]: 4280 to 9020 nM

- Derived Efficacy (fold inhibition) [7, 16]: 101.7383 fold inhibition
Compound: O=C([O-])c1ccccc1-c1c2ccc(=O)cc-2oc2cc([O-])ccc12.[Na+].[Na+] [Fluorescein sodium, reference compound]
- IC50 [6, 15]: 356 nM

Compound: N#C/C(=C1/SCC(c2ccccc2Cl)S1)n1ccnc1 (centres unmarked) [Lanoconazole, reference compound]
- AC50 [2]: 21100 nM

- Activity [7, 17]: Active
- Activity ([7]; antagonists, transient transactivation assay in the presence of 3 nM 1,25D3, listed as menadiol): moderate to marked synergistic activity
- IC50 [7, 18]: 3490 nM and 3500 nM
- AC50 ([7]; read-out: AC50): 45800 nM
- Derived Efficacy (fold inhibition) [7, 16]: 101.7383 fold inhibition
- Activity [3, 11]: very weak agonist activity
Compound: Cc1cc(O)c2ccccc2c1O [Menadiol, reference compound]
- IC50 [6, 15]: 979 nM

- AC50 [3, 10]: 0.446 µM
- Activity [3, 11]: Active
- Derived Efficacy (fold induction) [3]: 44.5165 fold induction
Compound: COC(=O)c1nc(Cl)c(Cl)nc1N [Methyl 3-amino-5,6-dichloropyrazine-2-carboxylate]
- AC50 [2]: 8780 nM

Compound: [Au+].[C-]#N.[C-]#N.[K+] [Potassium dicyanoaurate]
- IC50 [6]: 91.2 nM
- Activity [7]: Active
- Derived Efficacy (fold inhibition) [7]: 76.1807 fold inhibition
- IC50 [7, 14]: 98.5 nM
- pattern of change of 1,25D3 induced VDR:coregulator interaction [5]: selectively inhibited VDR:SRC-1 interactions only in the presence of full length wild type RXR

- Activity [7, 17]: Active
- AC50 [7, 19]: 668 nM
- IC50 [7, 18]: 555 nM
- Derived Efficacy (fold inhibition) [7, 16]: 68.3825 fold inhibition
Compound: Nc1ccc2cc3ccc(N)cc3nc2c1 [Proflavine hydrochloride]
- IC50 [6, 15]: 3410 nM

Compound: C[C@@H]1O[C@@H](O[C@@H]2C=C3CC[C@@H]4[C@H](CC[C@]5(C)[C@@H](c6ccc(=O)oc6)CC[C@]45O)[C@@]3(C)CC2)[C@H](O)[C@H](O)[C@H]1O [Proscillaridin, reference compound]
- IC50 [6]: 43.4 nM
- Activity [7]: Active
- Derived Efficacy (fold inhibition) [7]: 14.1669 fold inhibition
- IC50 [7, 12]: 1890 nM and 1900 nM
- pattern of change of 1,25D3 induced VDR:coregulator interaction [5]: selectively inhibited VDR:SRC-1 interactions only in the presence of full length wild type RXR; also recorded: enhanced the interaction between VDR:RXR only in the presence of co transfected SRC-1
- Fold Change (pMNCoR + EpSG5) [8]: 2.8

Compound: CC/C(=C(\c1ccccc1)c1ccc(OCCN(C)C)cc1)c1ccccc1 [Tamoxifen citrate, reference compound]
- AC50 [2]: 33000 to 56000 nM

- Activity [7, 17]: Active
- IC50 [7, 18]: 283 nM
- Derived Efficacy (fold inhibition) [7, 16]: 79.1108 fold inhibition
Compound: C[C@]1(Cn2ccnn2)[C@H](C(=O)O)N2C(=O)C[C@H]2S1(=O)=O [Tazobactam sodium, reference compound]
- IC50 [6, 15]: 1980 nM

Compound: CN(C)C(=S)SSC(=S)N(C)C [Thiram]
- Activity [7, 17]: Active
- AC50 [7, 19]: 479 nM
- IC50 [7, 18]: 420 nM and 428 nM
- Derived Efficacy (fold inhibition) [7, 16]: 76.1807 fold inhibition
- Fold Change (pMNCoR + EpSG5) [8]: 1.7

- % Induction, pMSRC-1NR + EpSG5 [1]: 0.9%
- AC50 [3, 9]: 12.2 µM
- AC50 [3, 10]: 3.07 µM
- Activity [3, 11]: Active
- Derived Efficacy (fold induction) [3]: 14.7020 fold induction
Compound: Nc1nc(N)c2nc(-c3ccccc3)c(N)nc2n1 [Triamterene, reference compound]
- AC50 [2]: 5300 to 42100 nM

Compound: [OH-].c1cc[c]([Sn+]([c]2ccccc2)[c]2ccccc2)cc1 [Triphenyltin hydroxide]
- IC50 [6]: 92.9 nM
- Activity [7]: Active
- Derived Efficacy (fold inhibition) [7]: 89.3748 fold inhibition
- IC50 [7, 14]: 45.4 nM
- pattern of change of 1,25D3 induced VDR:coregulator interaction [5]: consistently attenuate recruitment VDR:RXR and VDR:SRC-1 in both the presence and absence of co-expressed coregulators

Compound: Cadmium dinitrate
- IC50 [6]: 167 nM
- Activity [7]: Active
- Derived Efficacy (fold inhibition) [7]: 82.6111 fold inhibition
- pattern of change of 1,25D3 induced VDR:coregulator interaction [5]: enhanced recruitment of VDR:RXR and VDR:SRC-1 in both the presence and absence of co-expressed coregulators

Compound: Tributyltin chloride
- IC50 [6]: 959 nM
